Measured values taken from BindingDB's records for doi:10.1038/nsb921 (Mahidol University, 2003).

Experiments:
Assay in all cases: Antimalarial Testing In Vitro (IC50) and Measurement of Inhibition Constant (Ki)
Details in all cases: pH 7; 25 °C
[1] = molecular target: Bifunctional dihydrofolate reductase-thymidylate synthase (Plasmodium falciparum (isolate K1 / Thailand), UniProt P13922)
Procedure: (§1) The activity of pfDHFR-TS was determined spectrophotometrically using a UV-Vis spectrophotometer.

[2] = molecular target: Bifunctional dihydrofolate reductase-thymidylate synthase [N51I,C59R,S108N,I164L] (Plasmodium falciparum (isolate K1 / Thailand), UniProt Q8I1R6, C59R/I164L/N51I/S108N)
Chain of Bifunctional dihydrofolate reductase-thymidylate synthase [N51I,C59R,S108N,I164L] (Q8I1R6 whole entry N51I/C59R/S108N/I164L): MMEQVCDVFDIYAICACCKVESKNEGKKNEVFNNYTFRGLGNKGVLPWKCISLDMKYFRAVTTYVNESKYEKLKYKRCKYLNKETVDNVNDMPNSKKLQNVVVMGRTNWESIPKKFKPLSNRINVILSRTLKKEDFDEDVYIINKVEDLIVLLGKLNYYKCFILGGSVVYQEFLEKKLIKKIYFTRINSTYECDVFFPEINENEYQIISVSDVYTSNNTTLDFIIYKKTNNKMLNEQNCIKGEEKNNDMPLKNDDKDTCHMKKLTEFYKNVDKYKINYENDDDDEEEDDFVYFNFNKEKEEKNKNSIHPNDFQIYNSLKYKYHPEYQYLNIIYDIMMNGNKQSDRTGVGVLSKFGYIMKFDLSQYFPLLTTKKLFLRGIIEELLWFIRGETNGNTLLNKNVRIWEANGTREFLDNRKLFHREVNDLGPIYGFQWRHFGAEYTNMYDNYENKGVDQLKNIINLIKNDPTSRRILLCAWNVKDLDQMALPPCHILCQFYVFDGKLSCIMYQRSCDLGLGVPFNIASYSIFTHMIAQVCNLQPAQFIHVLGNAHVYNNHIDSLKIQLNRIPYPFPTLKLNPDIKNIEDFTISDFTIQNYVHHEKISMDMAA
Procedure: as §1

[3] = molecular target: Bifunctional dihydrofolate reductase-thymidylate synthase (Plasmodium falciparum (isolate K1 / Thailand), UniProt Q8I1R6)
Chain of Bifunctional dihydrofolate reductase-thymidylate synthase (Plasmodium falciparum (isolate K1 / Thailand), UniProt Q8I1R6) (Q8I1R6 whole entry): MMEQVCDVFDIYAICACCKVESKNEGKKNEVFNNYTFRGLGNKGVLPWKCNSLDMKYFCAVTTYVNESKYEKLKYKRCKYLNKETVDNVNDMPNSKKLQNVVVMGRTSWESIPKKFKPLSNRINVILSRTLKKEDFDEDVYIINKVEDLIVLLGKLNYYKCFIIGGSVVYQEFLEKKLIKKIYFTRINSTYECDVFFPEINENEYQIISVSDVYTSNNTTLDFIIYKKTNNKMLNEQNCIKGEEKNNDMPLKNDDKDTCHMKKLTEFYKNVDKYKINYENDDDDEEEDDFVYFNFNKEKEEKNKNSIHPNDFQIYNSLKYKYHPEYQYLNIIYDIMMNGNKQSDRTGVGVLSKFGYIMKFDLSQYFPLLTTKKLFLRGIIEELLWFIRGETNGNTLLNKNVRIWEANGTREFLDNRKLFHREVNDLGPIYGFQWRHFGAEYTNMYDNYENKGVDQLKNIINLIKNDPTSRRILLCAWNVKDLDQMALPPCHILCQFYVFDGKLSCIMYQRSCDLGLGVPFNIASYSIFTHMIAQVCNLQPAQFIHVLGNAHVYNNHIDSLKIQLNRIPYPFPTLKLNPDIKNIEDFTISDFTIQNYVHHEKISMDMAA
Procedure: as §1

Chain of Bifunctional dihydrofolate reductase-thymidylate synthase (Plasmodium falciparum (isolate K1 / Thailand), UniProt P13922) (P13922 whole entry): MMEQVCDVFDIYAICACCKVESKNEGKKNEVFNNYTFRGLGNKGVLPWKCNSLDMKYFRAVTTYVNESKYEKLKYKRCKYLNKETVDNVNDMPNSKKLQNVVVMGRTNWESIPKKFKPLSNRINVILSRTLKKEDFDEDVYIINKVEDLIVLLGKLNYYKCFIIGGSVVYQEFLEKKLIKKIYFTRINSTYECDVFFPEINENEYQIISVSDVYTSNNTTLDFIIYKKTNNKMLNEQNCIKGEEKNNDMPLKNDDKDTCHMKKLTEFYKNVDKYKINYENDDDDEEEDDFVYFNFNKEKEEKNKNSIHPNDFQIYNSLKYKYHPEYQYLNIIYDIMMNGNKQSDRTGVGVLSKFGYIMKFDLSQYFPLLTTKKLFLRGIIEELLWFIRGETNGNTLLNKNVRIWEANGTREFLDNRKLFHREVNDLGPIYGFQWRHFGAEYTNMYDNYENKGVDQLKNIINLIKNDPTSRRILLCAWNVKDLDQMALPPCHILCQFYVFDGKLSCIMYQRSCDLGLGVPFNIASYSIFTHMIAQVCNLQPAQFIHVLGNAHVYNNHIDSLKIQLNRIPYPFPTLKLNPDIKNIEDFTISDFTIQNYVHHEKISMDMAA

SMILES: CC1(C)N=C(N)N=C(N)N1c1ccc(Cl)cc1
- IC50 [1]: 2400 nM
- Ki [1]: 6.2 nM
- IC50 [2]: > 100000 nM
- Ki [2]: 254 nM
- IC50 [3]: 37 nM
- Ki [3]: 0.3 nM

SMILES: CC1(C)N=C(N)N=C(N)N1OCCCOc1cc(Cl)c(Cl)cc1Cl [6,6-dimethyl-1-[3-(2,4,5-trichlorophenoxy)propoxy]-1,6-dihydro-1,3,5-triazine-2,4-diamine]
- IC50 [1]: 2.3 nM
- Ki [1]: 0.02 nM
- IC50 [2]: 18 nM
- Ki [2]: 0.037 nM
- IC50 [3]: 0.57 nM
- Ki [3]: 0.011 nM
